{"source": "the CheMixHub viscosity set", "experiment": "xn = mol fraction of the nth substance listed", "note": "Several values for one entry are separate records, joined by “and”; a condition that tells them apart may be missing. Equal values may be shown once. ± gives the uncertainty stated by the source."}
{"smiles": "CCCCN", "note": "+ CCCCCO", "values": [{"measurement": "viscosity", "setting": "303.15 K, 101.33 kPa, x1 = 0.097", "value": "2.5 ± 0.019", "unit": "mPa·s"}, {"measurement": "viscosity", "setting": "303.15 K, 101.33 kPa, x1 = 0.102", "value": "2.52 ± 0.023", "unit": "mPa·s"}, {"measurement": "viscosity", "setting": "303.15 K, 101.33 kPa, x1 = 0.1887", "value": "2.182 ± 0.017", "unit": "mPa·s"}, {"measurement": "viscosity", "setting": "303.15 K, 101.33 kPa, x1 = 0.2002", "value": "2.086 ± 0.019", "unit": "mPa·s"}, {"measurement": "viscosity", "setting": "303.15 K, 101.33 kPa, x1 = 0.2883", "value": "1.842 ± 0.014", "unit": "mPa·s"}, {"measurement": "viscosity", "setting": "303.15 K, 101.33 kPa, x1 = 0.2994", "value": "1.72 ± 0.016", "unit": "mPa·s"}, {"measurement": "viscosity", "setting": "303.15 K, 101.33 kPa, x1 = 0.388", "value": "1.53 ± 0.012", "unit": "mPa·s"}, {"measurement": "viscosity", "setting": "303.15 K, 101.33 kPa, x1 = 0.4012", "value": "1.431 ± 0.013", "unit": "mPa·s"}, {"measurement": "viscosity", "setting": "303.15 K, 101.33 kPa, x1 = 0.5", "value": "1.19 ± 0.011", "unit": "mPa·s"}, {"measurement": "viscosity", "setting": "303.15 K, 101.33 kPa, x1 = 0.5146", "value": "1.18 ± 0.0094", "unit": "mPa·s"}, {"measurement": "viscosity", "setting": "303.15 K, 101.33 kPa, x1 = 0.6008", "value": "0.996 ± 0.009", "unit": "mPa·s"}, {"measurement": "viscosity", "setting": "303.15 K, 101.33 kPa, x1 = 0.6173", "value": "0.9476 ± 0.0077", "unit": "mPa·s"}, {"measurement": "viscosity", "setting": "303.15 K, 101.33 kPa, x1 = 0.6995", "value": "0.819 ± 0.008", "unit": "mPa·s"}, {"measurement": "viscosity", "setting": "303.15 K, 101.33 kPa, x1 = 0.7066", "value": "0.7962 ± 0.0066", "unit": "mPa·s"}, {"measurement": "viscosity", "setting": "303.15 K, 101.33 kPa, x1 = 0.8002", "value": "0.68 ± 0.007", "unit": "mPa·s"}, {"measurement": "viscosity", "setting": "303.15 K, 101.33 kPa, x1 = 0.8075", "value": "0.6516 ± 0.0056", "unit": "mPa·s"}, {"measurement": "viscosity", "setting": "303.15 K, 101.33 kPa, x1 = 0.8845", "value": "0.559 ± 0.0049", "unit": "mPa·s"}, {"measurement": "viscosity", "setting": "303.15 K, 101.33 kPa, x1 = 0.8997", "value": "0.574 ± 0.006", "unit": "mPa·s"}, {"measurement": "viscosity", "setting": "313.15 K, 101.33 kPa, x1 = 0.097", "value": "2.042 ± 0.016", "unit": "mPa·s"}, {"measurement": "viscosity", "setting": "313.15 K, 101.33 kPa, x1 = 0.102", "value": "1.956 ± 0.018", "unit": "mPa·s"}, {"measurement": "viscosity", "setting": "313.15 K, 101.33 kPa, x1 = 0.1887", "value": "1.761 ± 0.014", "unit": "mPa·s"}, {"measurement": "viscosity", "setting": "313.15 K, 101.33 kPa, x1 = 0.2002", "value": "1.639 ± 0.015", "unit": "mPa·s"}, {"measurement": "viscosity", "setting": "313.15 K, 101.33 kPa, x1 = 0.2883", "value": "1.49 ± 0.012", "unit": "mPa·s"}, {"measurement": "viscosity", "setting": "313.15 K, 101.33 kPa, x1 = 0.2994", "value": "1.381 ± 0.013", "unit": "mPa·s"}, {"measurement": "viscosity", "setting": "313.15 K, 101.33 kPa, x1 = 0.388", "value": "1.264 ± 0.01", "unit": "mPa·s"}, {"measurement": "viscosity", "setting": "313.15 K, 101.33 kPa, x1 = 0.4012", "value": "1.162 ± 0.011", "unit": "mPa·s"}, {"measurement": "viscosity", "setting": "313.15 K, 101.33 kPa, x1 = 0.5", "value": "0.976 ± 0.009", "unit": "mPa·s"}, {"measurement": "viscosity", "setting": "313.15 K, 101.33 kPa, x1 = 0.5146", "value": "0.9969 ± 0.0081", "unit": "mPa·s"}, {"measurement": "viscosity", "setting": "313.15 K, 101.33 kPa, x1 = 0.6008", "value": "0.829 ± 0.008", "unit": "mPa·s"}, {"measurement": "viscosity", "setting": "313.15 K, 101.33 kPa, x1 = 0.6173", "value": "0.8283 ± 0.0069", "unit": "mPa·s"}, {"measurement": "viscosity", "setting": "313.15 K, 101.33 kPa, x1 = 0.6995", "value": "0.693 ± 0.007", "unit": "mPa·s"}, {"measurement": "viscosity", "setting": "313.15 K, 101.33 kPa, x1 = 0.7066", "value": "0.6999 ± 0.0059", "unit": "mPa·s"}, {"measurement": "viscosity", "setting": "313.15 K, 101.33 kPa, x1 = 0.8002", "value": "0.583 ± 0.006", "unit": "mPa·s"}, {"measurement": "viscosity", "setting": "313.15 K, 101.33 kPa, x1 = 0.8075", "value": "0.5757 ± 0.005", "unit": "mPa·s"}, {"measurement": "viscosity", "setting": "313.15 K, 101.33 kPa, x1 = 0.8845", "value": "0.4945 ± 0.0045", "unit": "mPa·s"}, {"measurement": "viscosity", "setting": "313.15 K, 101.33 kPa, x1 = 0.8997", "value": "0.498 ± 0.005", "unit": "mPa·s"}, {"measurement": "viscosity", "setting": "323.15 K, 101.33 kPa, x1 = 0.102", "value": "1.551 ± 0.014", "unit": "mPa·s"}, {"measurement": "viscosity", "setting": "323.15 K, 101.33 kPa, x1 = 0.2002", "value": "1.322 ± 0.012", "unit": "mPa·s"}, {"measurement": "viscosity", "setting": "323.15 K, 101.33 kPa, x1 = 0.2994", "value": "1.122 ± 0.011", "unit": "mPa·s"}, {"measurement": "viscosity", "setting": "323.15 K, 101.33 kPa, x1 = 0.4012", "value": "0.957 ± 0.009", "unit": "mPa·s"}, {"measurement": "viscosity", "setting": "323.15 K, 101.33 kPa, x1 = 0.5", "value": "0.816 ± 0.008", "unit": "mPa·s"}, {"measurement": "viscosity", "setting": "323.15 K, 101.33 kPa, x1 = 0.6008", "value": "0.697 ± 0.007", "unit": "mPa·s"}, {"measurement": "viscosity", "setting": "323.15 K, 101.33 kPa, x1 = 0.6995", "value": "0.592 ± 0.006", "unit": "mPa·s"}, {"measurement": "viscosity", "setting": "323.15 K, 101.33 kPa, x1 = 0.8002", "value": "0.505 ± 0.005", "unit": "mPa·s"}, {"measurement": "viscosity", "setting": "323.15 K, 101.33 kPa, x1 = 0.8997", "value": "0.435 ± 0.005", "unit": "mPa·s"}]}
{"smiles": "O=C([O-])CC(=O)[O-].[Na+].[Na+]", "note": "+ O", "values": [{"measurement": "viscosity", "setting": "298.15 K, 101 kPa, x1 = 9e-05", "value": "0.8932 ± 0.022 mPa·s and 0.8932 ± 0.0057 mPa·s"}, {"measurement": "viscosity", "setting": "298.15 K, 101 kPa, x1 = 0.00018", "value": "0.8959 ± 0.037 mPa·s and 0.8959 ± 0.0059 mPa·s"}, {"measurement": "viscosity", "setting": "298.15 K, 101 kPa, x1 = 0.00027", "value": "0.8987 ± 0.022 mPa·s and 0.8987 ± 0.0063 mPa·s"}, {"measurement": "viscosity", "setting": "298.15 K, 101 kPa, x1 = 0.00036", "value": "0.9014 ± 0.022 mPa·s and 0.9014 ± 0.0058 mPa·s"}, {"measurement": "viscosity", "setting": "308.15 K, 101 kPa, x1 = 9e-05", "value": "0.7222 ± 0.021 mPa·s and 0.7222 ± 0.0048 mPa·s"}, {"measurement": "viscosity", "setting": "308.15 K, 101 kPa, x1 = 0.00018", "value": "0.7237 ± 0.021 mPa·s and 0.7237 ± 0.0048 mPa·s"}, {"measurement": "viscosity", "setting": "308.15 K, 101 kPa, x1 = 0.00027", "value": "0.7253 ± 0.021 mPa·s and 0.7253 ± 0.0048 mPa·s"}, {"measurement": "viscosity", "setting": "308.15 K, 101 kPa, x1 = 0.00036", "value": "0.7279 ± 0.021 mPa·s and 0.7279 ± 0.005 mPa·s"}, {"measurement": "viscosity", "setting": "318.15 K, 101 kPa, x1 = 9e-05", "value": "0.598 ± 0.021 mPa·s and 0.598 ± 0.0041 mPa·s"}, {"measurement": "viscosity", "setting": "318.15 K, 101 kPa, x1 = 0.00018", "value": "0.6007 ± 0.021 mPa·s and 0.6007 ± 0.0051 mPa·s"}, {"measurement": "viscosity", "setting": "318.15 K, 101 kPa, x1 = 0.00027", "value": "0.6021 ± 0.021 mPa·s and 0.6021 ± 0.0046 mPa·s"}, {"measurement": "viscosity", "setting": "318.15 K, 101 kPa, x1 = 0.00036", "value": "0.6048 ± 0.021 mPa·s and 0.6048 ± 0.0041 mPa·s"}]}
{"smiles": "CCCCN", "note": "+ CCCCN(CCCC)CCCC", "values": [{"measurement": "viscosity", "setting": "303.15 K, 101 kPa, x2 = 0.0993", "value": "0.5014 ± 0.0057", "unit": "mPa·s"}, {"measurement": "viscosity", "setting": "303.15 K, 101 kPa, x2 = 0.193", "value": "0.566 ± 0.006", "unit": "mPa·s"}, {"measurement": "viscosity", "setting": "303.15 K, 101 kPa, x2 = 0.3946", "value": "0.7175 ± 0.0069", "unit": "mPa·s"}, {"measurement": "viscosity", "setting": "303.15 K, 101 kPa, x2 = 0.4948", "value": "0.7961 ± 0.0073", "unit": "mPa·s"}, {"measurement": "viscosity", "setting": "303.15 K, 101 kPa, x2 = 0.5888", "value": "0.8701 ± 0.0078", "unit": "mPa·s"}, {"measurement": "viscosity", "setting": "303.15 K, 101 kPa, x2 = 0.7738", "value": "1.013 ± 0.0086", "unit": "mPa·s"}, {"measurement": "viscosity", "setting": "303.15 K, 101 kPa, x2 = 0.8887", "value": "1.094 ± 0.0091", "unit": "mPa·s"}, {"measurement": "viscosity", "setting": "313.15 K, 101 kPa, x2 = 0.0993", "value": "0.4423 ± 0.0054", "unit": "mPa·s"}, {"measurement": "viscosity", "setting": "313.15 K, 101 kPa, x2 = 0.193", "value": "0.4968 ± 0.0057", "unit": "mPa·s"}, {"measurement": "viscosity", "setting": "313.15 K, 101 kPa, x2 = 0.3946", "value": "0.6233 ± 0.0063", "unit": "mPa·s"}, {"measurement": "viscosity", "setting": "313.15 K, 101 kPa, x2 = 0.4948", "value": "0.688 ± 0.0067", "unit": "mPa·s"}, {"measurement": "viscosity", "setting": "313.15 K, 101 kPa, x2 = 0.5888", "value": "0.7498 ± 0.0071", "unit": "mPa·s"}, {"measurement": "viscosity", "setting": "313.15 K, 101 kPa, x2 = 0.7738", "value": "0.8682 ± 0.0077", "unit": "mPa·s"}, {"measurement": "viscosity", "setting": "313.15 K, 101 kPa, x2 = 0.8887", "value": "0.9377 ± 0.0082", "unit": "mPa·s"}]}
